Measured values reported in patent US10604512B2, “3-(1H-indol-2-yl)-1H-indazoles and therapeutic uses thereof” (Samumed, LLC, priority 2015, dated 2020).

Columns and labels:
Type in all cases: cell-based
SW480 colon cancer cells = test: Cell viability assay (CellTiter-Blue) in SW480 colon cancer cells; settings: Homo sapiens, 96 h, four days, CellTiter-Blue
Outline: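 4-day exposure, 37 °C/5% CO2; ~2×10^3 SW480 cells/well; 8-pt 1:3 curve, 10–0.0045 μM, duplicates vs DMSO controls. Resazurin→resorufin fluorescence readout, ~3 h. EC50 by nonlinear fit; if >10 μM, % inhibition at 10 μM reported.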

[1] = tested on: Primary human fibroblasts derived from IPF patients (LL29 cells) treated with TGF-β1; test: Inhibition of the fibrotic process: αSMA staining in TGF-β1-treated primary human fibroblasts from IPF patients (LL29 cells); settings: Fibroblast, 96 h, % αSMA-positive LL29 cells, TGF-β1 20 ng/mL, 4 days
Outline: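 LL29 IPF-patient fibroblasts in 1% FBS stimulated with TGF-β1 (20 ng/mL) and compound (10 μM–1.87 nM, 0.1% DMSO) for 4 days at 37 °C. SYTOX-positive cells excluded; % αSMA-positive cells imaged, normalized to TGF-β1/DMSO wells; EC50 by nonlinear regression, else % inhibition at 10 μM.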

IL-6 = test: Inhibition of IL-6 in LPS-stimulated THP-1 human monocyte cells (HTRF); settings: IL-6 inhibition, LPS-stimulated THP-1 cells, HTRF
Outline: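 THP-1 cells serum-reduced (1% FBS, 24 h), then 5000 cells/well preincubated 2 h with compound (10-point 1:3 series from 10 μM, 0.1% DMSO) before 500 ng/mL LPS for 22 h at 37 °C. Secreted IL-6 quantified by HTRF 665/620 ratio; DMSO-normalised duplicates fitted to four-parameter EC50; above 10 μM, % inhibition at 10 μM given.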

[2] = tested on: Wnt activity (Sp5-Luc reporter, TCF/LEF binding sites) in SW480 colon carcinoma cells; test: Screening assay for Wnt activity: Sp5-Luc reporter gene assay in stably transduced SW480 colon carcinoma cells; settings: Homo sapiens, overnight incubation, 10-point curve from 10 μM
Outline: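 SW480 cells stably transduced with a luciferase reporter driven by an Sp5 promoter of eight TCF/LEF sites were plated at 4,000 cells/well in 1% FBS medium. They were exposed overnight at 37° C to a 10-point 1:3 dilution series from 10 μM (0.1% DMSO). Luminescence was normalized to DMSO for four-parameter EC50, or percent inhibition at 10 μM.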

| Structure (SMILES) | EC50 (SW480 colon cancer cells) | EC50 (IL-6) | EC50 [2] | EC50 [1] |
| --- | --- | --- | --- | --- |
| CS(=O)(=O)NCc1cc(F)cc(-c2cccc3[nH]c(-c4n[nH]c5ccc(-c6cncc(CN7CCC(F)(F)C7)c6)cc45)cc23)c1 [Compound 502, N-(3-(2-(5-(5-((3,3-Difluoropyrrolidin-1-yl)methyl)pyridin-3-yl)-1H-indazol-3-yl)-1H-indol-4-yl)-5-fluorobenzyl)methane sulfonamide] | 3270 nM | 3140 nM | 475 nM | 811 nM |
| CCNCc1cncc(-c2ccc3[nH]nc(-c4cc5ncccc5[nH]4)c3c2)c1 [Compound 510, N-((5-(3-(1H-pyrrolo[3,2-b]pyridin-2-yl)-1H-indazol-5-yl)pyridin-3-yl)methyl)ethanamine] | 345 nM | 98 nM | 464 nM | 1590 nM |
| c1cncc(-c2cccc3[nH]c(-c4n[nH]c5ccc(-c6cn[nH]c6)cc45)cc23)c1 [Compound 583, 5-(1H-Pyrazol-4-yl)-3-(4-(pyridin-3-yl)-1H-indol-2-yl)-1H-indazole] | 128 nM | 78 nM | 49 nM | 501 nM |
| Cn1cc(-c2ccc3[nH]nc(-c4cc5c(-c6cccnc6)cccc5[nH]4)c3c2)cn1 [Compound 584, 5-(1-Methyl-1H-pyrazol-4-yl)-3-(4-(pyridin-3-yl)-1H-indol-2-yl)-1H-indazole] | 949 nM | 12 nM | 150 nM | 6820 nM |
| NC1CN(c2cncc(-c3ccc4[nH]nc(-c5cc6c(N7CCCCC7)cccc6[nH]5)c4c3)n2)C1 [Compound 634, 1-(6-(3-(4-(piperidin-1-yl)-1H-indol-2-yl)-1H-indazol-5-yl)pyrazin-2-yl)azetidin-3-amine] | 1250 nM | 74 nM | 468 nM | 794 nM |
| O=C(CC1CCCCC1)Nc1cncc(-c2ccc3[nH]nc(-c4cc5c(-c6ccsc6)cccc5[nH]4)c3c2)c1 [Compound 707, 2-Cyclohexyl-N-(5-(3-(4-(thiophen-3-yl)-1H-indol-2-yl)-1H-indazol-5-yl)pyridin-3-yl)acetamide] | 2130 nM | 1300 nM | 570 nM | > 10000 nM |
| CS(=O)(=O)NCc1cc(F)cc(-c2cccc3[nH]c(-c4n[nH]c5ccc(-c6cncc(OCc7ccccc7)c6)cc45)cc23)c1 [Compound 802, N-(3-(2-(5-(5-(Benzyloxy)pyridin-3-yl)-1H-indazol-3-yl)-1H-indol-4-yl)-5-fluorobenzyl)methanesulfonamide] | 461 nM | 802 nM | 189 nM | 400 nM |
| CN(C)CCNc1cc(F)cc(-c2cccc3[nH]c(-c4n[nH]c5ccc(-c6cnn(C)c6)cc45)cc23)c1 [Compound 808, N^1-(3-Fluoro-5-(2-(5-(1-methyl-1H-pyrazol-4-yl)-1H-indazol-3-yl)-1H-indol-4-yl)phenyl)-N^2,N^2-dimethylethane-1,2-diamine] | 89 nM | 6 nM | 69 nM | 88 nM |
| CN(C)CCNc1cc(F)cc(-c2cccc3[nH]c(-c4n[nH]c5ccc(-c6cncc(N7CC(N)C7)n6)cc45)cc23)c1 [Compound 810, N^1-(3-(2-(5-(6-(3-Aminoazetidin-1-yl)pyrazin-2-yl)-1H-indazol-3-yl)-1H-indol-4-yl)-5-fluorophenyl)-N^2,N^2-dimethylethane-1,2-diamine] | 458 nM | 77 nM | 224 nM | 653 nM |

Now from value to compound, other results behind:

| EC50 (SW480 colon cancer cells) | EC50 (IL-6) | EC50 [2] | Structure (SMILES) | EC50 [1] |
| --- | --- | --- | --- | --- |
| 891 nM | 122 nM | 105 nM | Cc1ccncc1-c1ccc2[nH]nc(-c3cc4c(-c5cc(F)cc(CNS(C)(=O)=O)c5)cccc4[nH]3)c2c1 [Compound 481, N-(3-Fluoro-5-(2-(5-(4-methylpyridin-3-yl)-1H-indazol-3-yl)-1H-indol-4-yl)benzyl)methanesulfonamide] | 156 nM |
| 3180 nM | 2060 nM | 650 nM | CS(=O)(=O)NCc1cc(F)cc(-c2cccc3[nH]c(-c4n[nH]c5ccc(-c6cncc(NC(=O)c7ccccc7)c6)cc45)cc23)c1 [Compound 487, N-(5-(3-(4-(3-Fluoro-5-(methylsulfonamidomethyl)phenyl)-1H-indol-2-yl)-1H-indazol-5-yl)pyridin-3-yl)benzamide] | 313 nM |
| 568 nM | 1060 nM | 120 nM | CN(C)Cc1cncc(-c2ccc3[nH]nc(-c4cc5c(-c6cc(F)cc(CNS(C)(=O)=O)c6)cccc5[nH]4)c3c2)c1 [Compound 489, N-(3-(2-(5-(5-((Dimethylamino)methyl)pyridin-3-yl)-1H-indazol-3-yl)-1H-indol-4-yl)-5-fluorobenzyl)methanesulfonamide] | 406 nM |
| 1490 nM | 5450 nM | 540 nM | CS(=O)(=O)NCc1cc(F)cc(-c2cccc3[nH]c(-c4n[nH]c5ccc(-c6cncc(CN7CCCCC7)c6)cc45)cc23)c1 [Compound 491, N-(3-Fluoro-5-(2-(5-(5-(piperidin-1-ylmethyl)pyridin-3-yl)-1H-indazol-3-yl)-1H-indol-4-yl)benzyl)methanesulfonamide] | 833 nM |
| 1030 nM | 991 nM | 130 nM | CS(=O)(=O)NCc1cc(F)cc(-c2cccc3[nH]c(-c4n[nH]c5ccc(-c6cncc(NC(=O)C7CC7)c6)cc45)cc23)c1 [Compound 496, N-(5-(3-(4-(3-Fluoro-5-(methylsulfonamidomethyl)phenyl)-1H-indol-2-yl)-1H-indazol-5-yl)pyridin-3-yl)cyclopropanecarboxamide] | 399 nM |
| 1400 nM | 3500 nM | 1020 nM | Fc1ccccc1-c1cccc2[nH]c(-c3n[nH]c4ccc(-c5cncc(OC6CCNCC6)c5)cc34)cc12 [Compound 572, 3-(4-(2-Fluorophenyl)-1H-indol-2-yl)-5-(5-(piperidin-4-yloxy)pyridin-3-yl)-1H-indazole] | 2230 nM |
| 1800 nM | 245 nM | 565 nM | COc1cncc(-c2ccc3[nH]nc(-c4cc5c(-c6ccsc6)cccc5[nH]4)c3c2)c1 [Compound 704, 5-(5-Methoxypyridin-3-yl)-3-(4-(thiophen-3-yl)-1H-indol-2-yl)-1H-indazole] | 31 nM |
| 1370 nM | 1710 nM | 680 nM | CN(C)CCOc1cncc(-c2ccc3[nH]nc(-c4cc5c(-c6ccoc6)cccc5[nH]4)c3c2)c1 [Compound 719, 2-((5-(3-(4-(Furan-3-yl)-1H-indol-2-yl)-1H-indazol-5-yl)pyridin-3-yl)oxy)-N,N-dimethylethan-1-amine] | 1950 nM |
| 3510 nM | 31 nM | 791 nM | c1cc(-c2ccoc2)c2cc(-c3n[nH]c4ccc(-c5cnccn5)cc34)[nH]c2c1 [Compound 724, 3-(4-(Furan-3-yl)-1H-indol-2-yl)-5-(pyrazin-2-yl)-1H-indazole] | 96 nM |
